The values that follow come from paper PMC9775191, “A Subset Screen of the Compounds Australia Scaffold Library Identifies 7-Acylaminodibenzoxazepinones as Potent and Selective Hits for Anti-Giardia Drug Discovery” (Biomedicines, 2022).

The subject of this test is G. duodenalis BRIS/91/HEPU/1279. The test can be described thus: Primary Giardia screen at 10 µM (live-cell imaging, automated counting). It is filed as cell-based, Giardia duodenalis. The settings on record: for % Inhibition n=1 24h / % Inhibition n=1 48h: first singlicate assay; for % Inhibition n=2 24h / % Inhibition n=2 48h: re-assessment. How it is done: Each compound was assessed in singlicate, at a final concentration of 10 μM (0.4 μL of a 5 mM stock; diluted to a final volume of 200 μL in culture medium; 0.2% DMSO). […] Plates were incubated in sealed chambers filled with 3% O2, 5% CO2 in N2 and growth was assessed at 24 and 48 h using live cell imaging and automated counting as previously described. Growth inhibition was calculated by subtracting media only background counts and determining percentage growth relative to vehicle (0.2% DMSO) controls. The reliability of these assays was assessed by calculating Z’ factors for each plate as previously described.

Take `O=C(NCc1ccco1)c1cnn2c1N[C@@H](c1ccc(Br)cc1)C[C@H]2C(F)(F)F` (relative stereo) [SN00783428]: the “Average % Inhibition 24h” value is 15.1%, the “% Inhibition n=1 24h” value came out at 27.8%, the “% Inhibition n=2 24h” value was 2.5% and the “Average % Inhibition 48h” value came to 18.5%. Also, the “% Inhibition n=1 48h” value is given as 35.3% and the “% Inhibition n=2 48h” value turned out to be 1.8%.

Consider `Cc1ccc([C@@H]2C[C@H](c3ccccc3)n3nnnc3N2)cc1` (relative stereo) [SN00783518], for which the “Average % Inhibition 24h” value came to 10.7%, the “% Inhibition n=1 24h” value was found to be 21.3%, the “% Inhibition n=2 24h” value was found to be 0.0% and the “Average % Inhibition 48h” value is listed as 20.0%. In addition, the “% Inhibition n=1 48h” value is reported as 40.1% and the “% Inhibition n=2 48h” value stood at 0.0%.

As to `CC(=O)N1N=C2C3CCN(CC3)[C@@H]2[C@@H]1c1cccc2ccccc12` (relative stereo) [SN00783777], the “% Inhibition n=1 48h” value was found to be 0.0%.

As to `COc1cccc([C@H]2C[C@@H](C(F)(F)F)n3ncc(C(=O)N4CCCCC4)c3N2)c1` (relative stereo) [SN00783803], the “% Inhibition n=1 48h” value was found to be 0.0%.

Take `CCc1ccc(NC(=O)[C@@H]2c3cc(OC)c(OC)cc3C(=O)N3CCCC[C@@H]23)cc1` (relative stereo) [SN00784165]: the “% Inhibition n=1 48h” value is listed as 28.1%.

With `O=C(NCc1ccccc1Cl)[C@H]1[C@H]2C(=O)N(Cc3cccs3)C[C@]23C=C[C@H]1O3` (relative stereo) [SN00784242], the “% Inhibition n=1 48h” value is listed as 22.4%.

As to `CCCNC(=O)[C@@H]1[C@@H]2C=C[C@@]3(CN(Cc4ccccc4Cl)C(=O)[C@H]13)O2` (relative stereo) [SN00784246], the “% Inhibition n=1 48h” value came out at 16.0%.

As to `CCCN(C(=O)c1cccc(NC(=O)[C@H]2[C@@H]3C[C@@H]4[C@H]2C(=O)O[C@@H]4C3)c1)c1ccccc1F` (relative stereo) [SN00785932], the “% Inhibition n=1 48h” value is listed as 2.8%.

Regarding `Cc1ccc(S(=O)(=O)[C@H]2CS(=O)(=O)C[C@@H]2N2CCC(C(N)=O)CC2)cc1` (relative stereo) [SN00786616], the “% Inhibition n=1 48h” value was determined as 0.0%.

For the molecule `CSc1ccc(NC(=O)N2C[C@@H]3C[C@H]2C[C@@H]3NC(=O)c2cccs2)cc1` (relative stereo) [SN00800991], the “% Inhibition n=1 48h” value is on record as 17.8%.

As for `C[C@@]1(O)CCN(C(=O)c2cccc(F)c2)C[C@H]1N1CCCC1` (relative stereo) [SN00801211], the “% Inhibition n=1 48h” value is 0.0%.

As for `CN(C[C@@]12CCC[C@H]1N(C)C(=O)CC2)C(=O)c1ccc2c(c1)OCO2` (relative stereo) [SN00801319], the “% Inhibition n=1 48h” value was 28.7%.

`CNC(=O)N1C[C@@H](CN(C)C)[C@@H](C2CCN(CCC(C)C)CC2)C1` (relative stereo) [SN00801505]: the “% Inhibition n=1 48h” value is recorded as 0.0%.

Regarding `COc1ccc(-c2nc(CN3C(=O)C(=O)N(C(C)C)C3=O)cs2)cc1` [SN00769384], the “% Inhibition n=1 48h” value came out at 0.0%.

With `Cc1oc(-c2ccccc2)nc1C(=O)N1CCN(S(=O)(=O)c2ccc(Br)s2)CC1` [SN00769595], the “% Inhibition n=1 48h” value was determined as 23.5%.

As to `O=C(C1CCCN(c2cnccn2)C1)N1CCN(Cc2cccs2)CC1` (stereo not shown) [SN00769722], the “% Inhibition n=1 48h” value was 17.2%.

With `CC(C)(C)OC(=O)N1CCN(C(=O)C2CCCNC2)CC1` (stereo not shown) [SN00769730], the “% Inhibition n=1 48h” value came out at 15.1%.

With `CC(=O)c1c(C)[nH]c(C(=O)Nc2nc(-c3ccco3)c(-c3ccco3)s2)c1C` [SN00769770], the “Average % Inhibition 24h” value is recorded as 25.0%, the “% Inhibition n=1 24h” value worked out at 21.9%, the “% Inhibition n=2 24h” value is reported as 28.1% and the “Average % Inhibition 48h” value was 52.7%. Further, the “% Inhibition n=1 48h” value amounted to 59.6% and the “% Inhibition n=2 48h” value came to 45.9%.

For the molecule `O=C(Nc1nc(-c2cc3ccccc3oc2=O)cs1)c1cccc(C(F)(F)F)c1` [SN00769798], the “% Inhibition n=1 48h” value is 0.0%.

`CC(NC(=O)C1CCOCC1)c1nc(-c2cccnc2)cs1` (stereo not shown) [SN00769908]: the “% Inhibition n=1 48h” value came to 0.0%.

`O=C(c1ccc(Cl)c(S(=O)(=O)NCC2CCCO2)c1)N1CC=C(c2ccccc2)CC1` (stereo not shown) [SN00769948]: the “% Inhibition n=1 48h” value came out at 6.8%.

Regarding `O=C(C1CCN(S(=O)(=O)c2ccccc2)CC1)N1CC=C(c2ccccc2)CC1` [SN00769994], the “% Inhibition n=1 48h” value is on record as 0.0%.

Regarding `CC(C)(C)C(=O)N1CCC(C(=O)N2CC=C(c3ccc(F)cc3)CC2)CC1` [SN00770003], the “% Inhibition n=1 48h” value amounted to 0.0%.

As for `O=C(/C=C/c1cccc([N+](=O)[O-])c1)Nc1ccc2c(c1)nc1n2CCCCC1` [SN00770035], the “% Inhibition n=1 48h” value is recorded as 0.0%.

For `c1ccc(-n2nnnc2N2CCN(C3CC3)CC2)cc1` [SN00770081], the “% Inhibition n=1 48h” value worked out at 0.0%.

For the molecule `Cc1ccccc1C(=O)N1CCN(C(=O)c2[nH]nc3ccccc23)CC1` [SN00770261], the “% Inhibition n=1 48h” value is given as 25.4%.

On to `CC(C)n1ncc2c(C(=O)N3CCC(NS(=O)(=O)c4cccs4)CC3)cc(C3CC3)nc21` [SN00770479], for which the “% Inhibition n=1 48h” value came out at 0.0%.

Consider `CN1CCN(Cc2nc3ccccc3c(=O)n2Cc2nc(-c3cccc([N+](=O)[O-])c3)cs2)CC1` [SN00770541], for which the “% Inhibition n=1 48h” value is 11.4%.

For the molecule `Cc1cc2n(CC(O)COc3ccccc3F)c(=O)c3ccccc3n2n1` (stereo not shown) [SN00770617], the “% Inhibition n=1 48h” value is given as 17.7%.

Take `Cc1csc(/C(=C\c2cc(C)n(-c3ccnn3C(C)C)c2C)CN)n1` [SN00770781]: the “% Inhibition n=1 48h” value is on record as 5.0%.

With `NC(=O)c1cn(Cc2nc(-c3ccoc3)no2)nc1-c1ccccc1` [SN00770936], the “% Inhibition n=1 48h” value is 0.0%.

As to `c1cncc(-c2nc(Sc3nnnn3CC3CCCO3)c3ccccc3n2)c1` (stereo not shown) [SN00771230], the “% Inhibition n=1 48h” value worked out at 11.8%.

As to `Cc1cc2nc(Sc3nnnn3CC3CCCO3)c3ccccc3n2n1` (stereo not shown) [SN00771233], the “% Inhibition n=1 48h” value was 16.5%.

Regarding `CCC1c2ccsc2CCN1C(=O)C1CCN(S(=O)(=O)c2ccc(Cl)c([N+](=O)[O-])c2)CC1` (stereo not shown) [SN00771236], the “% Inhibition n=1 48h” value is reported as 27.8%.

For the molecule `CC1(c2ccco2)NC(=O)N(CC(=O)c2ccccc2)C1=O` (stereo not shown) [SN00771276], the “% Inhibition n=1 48h” value is on record as 12.8%.

With `CC1(c2ccco2)NC(=O)N(NC(=O)c2sc3ccccc3c2Cl)C1=O` (stereo not shown) [SN00771283], the “% Inhibition n=1 48h” value stood at 16.0%.

With `CCc1ccccc1Nc1nc(N)nc(CN2CCCN(S(=O)(=O)c3ccc(C)cc3)CC2)n1` [SN00771296], the “% Inhibition n=1 48h” value was determined as 10.0%.

For the molecule `COc1ccc(CN2CCCN(C(=O)c3cn4ccc(C)cc4n3)CC2)cc1` [SN00771379], the “% Inhibition n=1 48h” value came to 0.0%.

For `Cc1cc(C(=O)N2CCCN(c3cccnn3)CC2)c(C)n1C(C)C` [SN00771426], the “% Inhibition n=1 48h” value stood at 0.0%.

Consider `CCn1ccnc1CN1CCCN(C(=O)c2cnc(C)cn2)CC1` [SN00771476], for which the “% Inhibition n=1 48h” value was found to be 10.9%.

In the case of `C/C=C/c1ccc(OCC(=O)N2CCCN(C(=O)C3CCCC3)CC2)c(OC)c1` [SN00771493], the “% Inhibition n=1 48h” value was found to be 16.5%.

Take `CC(=O)N1CCCN(Cc2ncc(Cl)n2C)CC1` [SN00771536]: the “% Inhibition n=1 48h” value was 46.7%.

With `COC(=O)CNC(=O)c1cn(-c2ccc(C(F)(F)F)cn2)nn1` [SN00771716], the “% Inhibition n=1 48h” value was determined as 0.0%.

With `c1ccc2sc(N3CCCC3c3nnc4n3CCCCC4)nc2c1` (stereo not shown) [SN00771886], the “% Inhibition n=1 48h” value came to 12.0%.

As to `Cn1ncc2c(NC3CCN(Cc4ccncc4)CC3)ncnc21` [SN00771916], the “% Inhibition n=1 48h” value was 0.0%.

As to `O=C(C(c1ccccc1)c1ccccc1)N1CCCC(c2nnc3n2CCCCC3)C1` (stereo not shown) [SN00771924], the “% Inhibition n=1 48h” value is 8.5%.

Regarding `COc1cccc(CCC(=O)N2CCCC(c3nnc4n3CCCCC4)C2)c1` (stereo not shown) [SN00771943], the “% Inhibition n=1 48h” value is listed as 2.6%.

As for `CSc1ccc(Cl)c(C(=O)N2CCCN(C(=O)c3ccncc3)CC2)c1` [SN00771952], the “% Inhibition n=1 48h” value is 45.6%.

For `O=C(COc1ccccc1)N1CCCN(c2cccnn2)CC1` [SN00772032], the “% Inhibition n=1 48h” value stood at 1.9%.

On to `Cc1ccc(N2CCCN(C(=O)CN(C)C3CC3)CC2)nn1` [SN00772050], for which the “% Inhibition n=1 48h” value is 11.9%.

Regarding `O=C(Nc1ccccc1)N1CCCC1CN1CCCCC1` (stereo not shown) [SN00772093], the “% Inhibition n=1 48h” value is 16.8%.

Take `O=C(NCc1ccc(F)cc1)N1CCCCC1c1nc(-c2ccccc2)no1` (stereo not shown) [SN00772110]: the “% Inhibition n=1 48h” value is reported as 0.0%.

Take `O=C(CCN1C(=O)CCC1=O)N1CCCC(N2CCCCCC2)C1` (stereo not shown) [SN00772233]: the “% Inhibition n=1 48h” value was 7.1%.

Take `CC(=O)c1c(C)[nH]c(C(=O)N2CCCC2c2nc(-c3cccc(C(F)(F)F)c3)c[nH]2)c1C` (stereo not shown) [SN00772247]: the “% Inhibition n=1 48h” value turned out to be 17.0%.

In the case of `Cc1nn(C)c(N2CCN(C(C)c3nc4ccccc4s3)CC2)c1[N+](=O)[O-]` (stereo not shown) [SN00772279], the “% Inhibition n=1 48h” value was 10.6%.

Turning to `Cc1nnc(CN2CCN(CC(O)COCc3ccco3)CC2)n1C` (stereo not shown) [SN00772332], the “Average % Inhibition 24h” value is given as 0.0%, the “% Inhibition n=1 24h” value is 0.0%, the “% Inhibition n=2 24h” value was determined as 0.0% and the “Average % Inhibition 48h” value is 28.5%. Besides, the “% Inhibition n=1 48h” value came out at 57.1% and the “% Inhibition n=2 48h” value was 0.0%.

As to `CCOC(=O)c1ccsc1NC(=O)CN1CCNC(=O)CC1c1ccccc1` (stereo not shown) [SN00772435], the “% Inhibition n=1 48h” value is on record as 0.0%.

Turning to `CC(C)(C)NS(=O)(=O)c1ccc(N2CCC(c3nnc4n3CCC4)CC2)c([N+](=O)[O-])c1` [SN00772456], the “% Inhibition n=1 48h” value is listed as 4.6%.

For the molecule `Cn1ncc2c(=O)[nH]c(CN3CCCC3Cc3ccccc3)nc21` (stereo not shown) [SN00772513], the “% Inhibition n=1 48h” value is given as 21.0%.
